The source of these data is patent US20150335558A1, “NERVE GROWTH INHIBITOR, CUTANEOUS-SENSORY-IRRITATION INHIBITOR, AND MARKER FOR CUTANEOUS-SENSORY-IRRITATION DETECTION” (HOYU CO., LTD., priority 2012, published 2015).

Molecules are shown by their SMILES.

Assay [1] deals with mast cell deficient mice (WBB6F1-W/W^V) and normal control mice (WBB6F1-+/+). The assay is described as follows: Scratch bouts of mice after 10% sodium laurate application (Sample Experiment 2). It counts as in vivo, mouse. The conditions noted are these: 10% SL aqueous solution 50 μL single application, 2 hrs. after application, both mast cell deficient and normal control mice. As to the method: Male mast cell deficient mice at ages of 7 to 8 weeks (WBB6F1-W/W^V mouse), purchased from Japan SLC, and normal control mice that are wild mice at ages of 7 to 8 weeks (WBB6F1-+/+mouse) were used. They were given solid feed under free water supply and subjected to preliminary rearing for 7 days or longer under a constant temperature/constant humidity environment with a temperature of 22±2° C., and a humidity of 55±10% before they were used in the test. The mice for use were subjected to the test at least 3 days after shearing/depilating of the rostral back. […] That is, a single mouse was put in each of the 4 divided sections of an acrylic box (13×9×35 cm) to be acclimated for at least 1 hr., and they were video recorded in an environment without any person to record their action. Then, by watching the video, the number of scratch bouts against the rostral back by the hind leg was counted. A series of scratching movements (movements that include scratching the rostal back, where the solution is applied, with the hind leg, then dropping the hind leg to the ground) was counted as 1 count, and the number of times scratching was performed in 60 mins. was counted by visual observation. […]

Assay [2] deals with histamine and active HDC (53 kDa) in mouse epidermis and dermis. Kind of assay: Histamine amount and HDC activation in ICR mouse skin after 10% sodium laurate (Sample Experiment 3). It counts as in vivo. The conditions noted are these: ICR mice. As for the experimental part: Male ICR mice at ages of 7 to 8 weeks, purchased from Japan SLC, were used. They were given solid feed under free water supply and subjected to preliminary rearing for 7 days or longer under a constant temperature/constant humidity environment with a temperature of 22±2° C., and a humidity of 55±10% before they were used in the test. The mice for use were subjected to the test at least 3 days after shearing/depilating of the rostral back. A 10% aqueous solution obtained by dissolving SL in distilled water was applied as a stimulating substance against the skin at 50 μL to the sheared/depilated rostral back of the mice mentioned above. Distilled water was applied to the solvent control group (Vehicle). Note concerning FIG. 5 and FIG. 6 to be described later that the mice that were not treated with the above SL aqueous solution or distilled water are called “NT (not treated).” The amount of histamine in skin was measured before applying a surfactant, 2 hrs. after application, and 24 hrs. after application (the time of application was set to 0 hr.). Skins were collected while the mice were under anesthesia after perfusion with a phosphate buffer solution (PBS) using the cardiac blood circulation system (punched out with a biopsy punch in a circular shape of a diameter of 18 mm). The amounts of histamine in the collected skins were measured. After the collected skins were immersed in PBS at 60° C. for 30 secs., they were separated into the epidermis and the dermis. Then, the amounts of histamine in the epidermis and the dermis were measured using the measurement kit. To measure the amount of histamine, tissues of both the epidermis and the dermis were pulverized to create tissue suspensions, which were subjected to centrifugation, then supernatants were collected to measure the amounts of histamine in the supernatants.

The next assay concerns ICR mice. The assay is described as follows: Scratch bouts of ICR mice after 10% SDS application (Sample Experiment 1-1). In kind it is in vivo, mouse. The conditions noted are these: ICR mice of 10% SDS group at Day 3, TRF 30 mg/kg oral, 30 mins. before observation, 60 mins. count. As to the method: The present Sample Experiment was conducted using ICR mice, and an anionic surfactant, namely, sodium dodecyl sulfate (SDS), was used as a stimulating substance to analyze the scratch bouts of mice. After SDS had been applied, terfenadine (TRF) was administered as an antihistamine to determine its effect on scratch bouts.
Male ICR mice at ages of 7 to 8 weeks, purchased from Japan SLC, were used. The mice were given solid feed under free water supply and subjected to preliminary rearing for 7 days or longer under a constant temperature/constant humidity environment with a temperature of 22±2° C., and a humidity of 55±10% before they were used in the test. The mice for use were used in the test at least 3 days after shearing/depilating the rostral back of each mouse. […]
The scratch bouts of mice were performed in view of the Kuraishi et al. report. That is, a single mouse was put in each chamber of the 4 divided sections in an acrylic box (13×9×35 cm) to be acclimated for at least an hour, and they were video recorded in an environment without any person for at least an hour a day from the day of applying the above 10% SDS aqueous solution (Day 0) to the 4th day after application (Day 4) to record their movement. Then, by watching the video, the number of scratch bouts against the rostral back by the hind leg was counted. […]

[3] abbreviates: 2 hrs. after 10% SL application.
[4] abbreviates: 24 hrs. after 10% SL application.

Regarding `CCCCCCCCCCCC(=O)[O-].[Na+]` [SL, sodium laurate], the “scratch bouts of mice (number in 60 mins.) after stimulating substance” value in assay [1] is on record as “clearly increased”. In assay [2] (setting [3]), the “active HDC (53 kDa) in mouse epidermis” value is reported as “increased significantly” and the “histamine level in the epidermis” value is on record as “increased”. Moreover, in assay [2] (setting [4]), the “active HDC (53 kDa) in mouse epidermis” value was “returned to the pre-application level” and the “histamine level in the epidermis” value was “returned to the pre-application level”. Further, the “histamine level of the dermis” value in assay [2] (before, 2 hrs. and 24 hrs. after 10% SL application) is recorded as “no substantial change was observed”.
Consider `CC(C)(C)c1ccc(C(O)CCCN2CCC(C(O)(c3ccccc3)c3ccccc3)CC2)cc1` (stereo not shown) [TRF, terfenadine], for which the “scratch bouts of SDS-treated mice after TRF, After vs Before” value in the assay on ICR mice was “effectively suppressed”.
